Values joined by “and” are separate entries in the source; they are usually repeats but may differ in a detail not shown here. Equal values may be shown once. Read-outs that look alike come from different tables or passages of the source.
How the values were obtained:
3CLpro of SARS-CoV = 3CLpro of SARS-CoV (Severe acute respiratory syndrome coronavirus, UniProt P0C6X7); assay: biochemical
3CLpro of MERS-CoV = 3CLpro of MERS-CoV (Middle East respiratory syndrome-related coronavirus, UniProt K9N7C7); assay: biochemical
3CLpro of MERS-CoV, sequence (K9N7C7 3248-3553 limits assumed): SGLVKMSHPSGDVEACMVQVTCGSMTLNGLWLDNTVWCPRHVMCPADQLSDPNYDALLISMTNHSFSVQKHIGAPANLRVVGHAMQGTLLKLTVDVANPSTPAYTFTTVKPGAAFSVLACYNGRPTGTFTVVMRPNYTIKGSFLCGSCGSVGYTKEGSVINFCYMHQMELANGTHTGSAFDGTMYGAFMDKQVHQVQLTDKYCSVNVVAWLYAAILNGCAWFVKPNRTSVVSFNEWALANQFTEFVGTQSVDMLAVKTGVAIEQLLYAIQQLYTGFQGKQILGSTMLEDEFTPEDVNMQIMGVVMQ

3CLpro of SARS-CoV-2 = biological target: T1, 3CLpro of SARS-CoV-2 (Severe acute respiratory syndrome coronavirus 2, UniProt P0DTD1); assay: biochemical
T1 construct: His6 (N); made in house; host or cells: E. coli (inferred from the pET-28a(+) vector)

FIPV [1] = assay: microbe, parasite or virus in culture; assay type: cell-based, feline infectious peritonitis virus; details: Alphacoronavirus 1, CRFK, 24 h, read-out: EC50 in cell culture, FIPV
MHV = assay: microbe, parasite or virus in culture; assay type: cell-based, mouse hepatitis virus; details: Murine coronavirus, L929, 24 h, read-out: EC50 in cell culture, MHV
SARS-CoV-2 [2] = assay: microbe, parasite or virus in culture; assay type: cell-based; details: Severe acute respiratory syndrome coronavirus 2, Vero C1008, read-out: EC50 in cell culture, SARS-CoV-2
MERS-CoV = assay: microbe, parasite or virus in culture; assay type: cell-based
SARS-CoV-2 [3] = assay: microbe, parasite or virus in culture; assay type: cell-based
MERSMA-CoV [4] = details: mouse, in vivo
MERSMA-CoV [5] = details: mouse, in vivo, 50 mg/kg/day
[6] = tested on: feline infectious peritonitis (FIP); details: in vivo; cited from earlier work
FIPV [7] = details: read-out: EC50 in cell culture, FIPV; cited from earlier work
[8] = Middle East respiratory syndrome-related coronavirus, Huh-7, read-out: EC50 in cell culture, MERS-CoV

CC(C)C[C@H](NC(=O)OC1CCCCC1)C(=O)N[C@H](C=O)C[C@@H]1CCNC1=O [Compound 6a]
IC50 (3CLpro of SARS-CoV): 3.9 ± 0.3 µM
IC50 (3CLpro of MERS-CoV): 0.35 ± 0.1 µM
IC50 (3CLpro of SARS-CoV-2): 0.82 ± 0.1 µM
EC50 (FIPV [1]): 0.09 ± 0.02 µM
CC50 (in vitro): > 100 µM
EC50 (MHV): 0.12 ± 0.05 µM

CCCC1CCC(OC(=O)N[C@@H](CC(C)C)C(=O)N[C@H](C=O)C[C@@H]2CCNC2=O)CC1 (stereo partly shown) [Compound 6c]
EC50 (SARS-CoV-2 [2]): 0.25 ± 0.15 µM
IC50 (3CLpro of SARS-CoV-2): 0.28 ± 0.05 µM
EC50 in cell culture, MERS-CoV (MERS-CoV): submicromolar
EC50 (MERS-CoV; [8]): 0.05 ± 0.06 µM
EC50 (FIPV [1]): 0.12 ± 0.01 µM
CC50 (in vitro): > 100 µM
EC50 (MHV): 0.13 ± 0.05 µM

CC(C)C[C@H](NC(=O)OCC1CCC(F)(F)CC1)C(=O)N[C@H](C=O)C[C@@H]1CCNC1=O [Compound 6j]
inhibition of viral replication (SARS-CoV-2 [3]): about 10 fold
inhibition of virus replication (SARS-CoV-2 [3]): 100 fold
Virus titers (log10) (SARS-CoV-2 [3]; 48 hours): 6.35 ± 0.02 log10 and 6.10 ± 0.09 log10 and 6.30 ± 0.1 log10
EC50 in cell culture, MERS-CoV (MERS-CoV): submicromolar
EC50 (MERS-CoV; [8]): 0.04 ± 0.02 µM
EC50 (FIPV [1]): 0.08 ± 0.02 µM
Edema in the lungs (score 0 to 4) (MERSMA-CoV [4]): reduced compared to control mice
Lung virus titers (MERSMA-CoV [4]): decreased
Scores for hyaline membrane formation (0 to 4) (MERSMA-CoV [4]): reduced in 6j-treated mice but were not statistically different from control mice
lung lesions (histopathology) (MERSMA-CoV [4]): few observed lesions
CC50 (in vitro): > 100 µM
body weight (MERSMA-CoV [5]): regained the lost weight by 15 dpi
body weight (MERSMA-CoV [5]; ip): rapidly recovered from body weight loss starting at 3 dpi
survival at the end of the study (15 dpi) (MERSMA-CoV [5]; ip): all mice treated with compound 6j were alive

CCCCC1CCC(OC(=O)N[C@@H](CC(C)C)C(=O)N[C@@H](C[C@@H]2CCNC2=O)C(O)S(=O)(=O)O)CC1 (stereo partly shown) [Compound 7e]
IC50 (3CLpro of SARS-CoV): 1 ± 0.1 µM
IC50 (3CLpro of MERS-CoV): 0.13 ± 0.06 µM
IC50 (3CLpro of SARS-CoV-2): 0.2 ± 0.06 µM
EC50 in cell culture, MERS-CoV (MERS-CoV): submicromolar
EC50 (MERS-CoV; [8]): 0.53 ± 0.2 µM
EC50 (FIPV [1]): 0.17 ± 0.02 µM
CC50 (in vitro): 59.1 ± 3.5 µM
EC50 (MHV): 0.13 ± 0.02 µM

CCCC1CCC(OC(=O)N[C@@H](CC(C)C)C(=O)N[C@@H](C[C@@H]2CCNC2=O)C(O)S(=O)(=O)O)CC1 (stereo partly shown) [Compound 7c]
IC50 (3CLpro of MERS-CoV): 0.1 ± 0.04 µM
IC50 (3CLpro of SARS-CoV-2): 0.23 ± 0.05 µM
EC50 (FIPV [1]): 0.17 ± 0.03 µM
CC50 (in vitro): > 100 µM
EC50 (MHV): 0.16 ± 0.08 µM

CCCCC1CCC(OC(=O)N[C@@H](CC(C)C)C(=O)N[C@H](C=O)C[C@@H]2CCNC2=O)CC1 (stereo partly shown) [Compound 6e]
inhibition of viral replication (SARS-CoV-2 [3]): about 10 fold
inhibition at 0.5 µM (SARS-CoV-2 [3]; Severe acute respiratory syndrome coronavirus 2, Epithelial cell, read-out: inhibition of virus replication): ~50%
IC50 (3CLpro of SARS-CoV): 0.9 ± 0.1 µM
IC50 (3CLpro of MERS-CoV): 0.15 ± 0.02 µM
EC50 (SARS-CoV-2 [2]): 0.15 ± 0.14 µM
IC50 (3CLpro of SARS-CoV-2): 0.17 ± 0.06 µM
EC50 (FIPV [1]): 0.22 ± 0.03 µM
CC50 (in vitro): 63.3 ± 2.3 µM
EC50 (MHV): 0.12 ± 0.04 µM

CC(C)C[C@H](NC(=O)OC1CCC(F)(F)CC1)C(=O)N[C@H](C=O)C[C@@H]1CCNC1=O [Compound 6h]
IC50 (3CLpro of SARS-CoV): 2.3 ± 0.3 µM
IC50 (3CLpro of MERS-CoV): 0.07 ± 0.01 µM
EC50 (SARS-CoV-2 [2]): 0.9 ± 0.8 µM
IC50 (3CLpro of SARS-CoV-2): 0.43 ± 0.1 µM
EC50 (FIPV [1]): 0.12 ± 0.05 µM
CC50 (in vitro): > 100 µM
EC50 (MHV): 0.08 ± 0.05 µM
body weight (MERSMA-CoV [5]; ip): continued to lose body weight until 6 dpi but then started to gain weight from 9 dpi
survival at the end of the study (15 dpi) (MERSMA-CoV [5]; ip): 40%

CC(C)C[C@H](NC(=O)OCc1ccccc1)C(=O)N[C@@H](C[C@@H]1CCNC1=O)C(O)S(=O)(=O)O (stereo partly shown) [GC376, reference compound]
EC50 (MERS-CoV; [8]): ~1 µM
EC50 (MERS-CoV; read-out: EC50 in cell culture, MERS-CoV): 0.9 ± 0.2 µM
CC50 (in vitro): > 100 µM
progression of FIP [6]: reversed the progression of FIP and resulted in clinical remission
EC50 (FIPV [7]): 0.04 µM

CC(C)C[C@H](NC(=O)OC1CCC(F)(F)CC1)C(=O)N[C@@H](C[C@@H]1CCNC1=O)C(O)S(=O)(=O)O (stereo partly shown) [Compound 7h]
IC50 (3CLpro of SARS-CoV): 2.2 ± 0.1 µM
IC50 (3CLpro of MERS-CoV): 0.08 ± 0.01 µM
IC50 (3CLpro of SARS-CoV-2): 0.41 ± 0.1 µM
EC50 in cell culture, MERS-CoV (MERS-CoV): submicromolar
EC50 (MERS-CoV; [8]): 0.21 ± 0.1 µM
EC50 (FIPV [1]): 0.12 ± 0.06 µM
CC50 (in vitro): > 100 µM
EC50 (MHV): 0.11 ± 0.08 µM

CC(C)C[C@H](NC(=O)OC1CCCCC1)C(=O)N[C@@H](C[C@@H]1CCNC1=O)C(O)S(=O)(=O)O (stereo partly shown) [Compound 7a]
IC50 (3CLpro of SARS-CoV): 3.8 ± 0.4 µM
IC50 (3CLpro of MERS-CoV): 0.15 ± 0.01 µM
IC50 (3CLpro of SARS-CoV-2): 0.65 ± 0.06 µM
EC50 in cell culture, MERS-CoV (MERS-CoV): submicromolar
EC50 (MERS-CoV; [8]): 0.08 ± 0.1 µM
EC50 (FIPV [1]): 0.07 ± 0.02 µM
CC50 (in vitro): > 100 µM
EC50 (MHV): 0.08 ± 0.03 µM

CC(C)C[C@H](NC(=O)OCC1CCC(F)(F)CC1)C(=O)N[C@@H](C[C@@H]1CCNC1=O)C(O)S(=O)(=O)O (stereo partly shown) [Compound 7j]
IC50 (3CLpro of SARS-CoV): 1.1 ± 0.1 µM
IC50 (3CLpro of MERS-CoV): 0.1 ± 0.01 µM
IC50 (3CLpro of SARS-CoV-2): 0.45 ± 0.1 µM
EC50 (FIPV [1]): 0.07 ± 0.01 µM
CC50 (in vitro): > 100 µM
EC50 (MHV): 0.16 ± 0.05 µM
